Patent US12636274B2, “Pharmaceutical compositions and methods for systemic treatment of solid tumors” (7 HILLS INTERESTS LLC, priority 2014, dated 2026)
Marks after values point to notes of the source that are not given here.

Key:
[1] = Clinical symptoms in monkeys; format: in vivo
[2] = tested on: CD3+ CD8+ and CD3+ CD4+ tumor infiltrating T-cells; experiment: Tumor infiltrating lymphocytes (TILs) by FACS in CT26 tumors; format: in vivo, Mouse (Mus musculus)
Description: On day 19 of treatment initiation tumors were isolated from study mice aseptically (n=5/group).
Tumor tissue was minced devoid of dead and necrotic tissue was mechanically disaggregated aseptically in RPMI medium without proteolytic enzymes in gentleMACS C-tubes using gentleMACS Octo Dissociator under the program 37C_m_TDK_1_30m (Miltenyi Biotec). Cell suspension was enriched for single cells by filtering the disaggregated mix through 70 μm cell strainer. Cells were pelleted at 300 g for 7 min at 4° C., washed twice with fresh complete media followed by FACS buffer containing PBS w/o calcium and magnesium (pH 7.4), 2% FBS and 0.05% sodium azide. Note: Proteolytic enzymes may chew up the antigen epitopes, therefore enzymatic dissociation is not performed.
Five million total viable cells were used as input for staining with the following fluorochrome conjugated antibodies for 30 min on ice in dark. Unbound stain was removed by washing cells in FACS buffer twice. […]
Unstained cells were used for setting up gates and focus single cells using INSPIRE acquisition software in Amnis FlowSight flow cytometer (Amnis Corporation, Seattle, WA) with 405, 488, 642 nm excitation lasers. […]
Before proceeding for FACS acquisition, we have recorded the total viable cell yield for each tumor sample. […] From the CD3 positive population gated out of viable 7AAD-ve population, the percentage of viable cells displaying CD3 positive signal was recorded using the statistics option in FACS software. […] Based on this information, yield per million cells was calculated and reported in results.
In addition, tumors were allowed to grow up to day 18 with continued Compound 1 dose, that decreased tumor growth resulting in a significant inhibition p<0.01 in the q.d. group compared to p<0.0001 in BID group. […] Upon non-enzymatic dissociation, cell viability was assessed and subjected to enumeration of CD3^+, CD4^+ or CD8^+ tumor infiltrating T-cells (detailed method, refer section 11).

α2b1/Collagen I = α2b1/Collagen I (Homo sapiens, UniProt P05556+P17301); experiment: Integrin activation, adhesion α2b1/Collagen I; format: cell-based; parameters: key: Not Active: Not active: ≤2 fold increase in adhesion; conditions: 50% serum; n = 3
Sequence of α2b1/Collagen I (P17301 30-1181): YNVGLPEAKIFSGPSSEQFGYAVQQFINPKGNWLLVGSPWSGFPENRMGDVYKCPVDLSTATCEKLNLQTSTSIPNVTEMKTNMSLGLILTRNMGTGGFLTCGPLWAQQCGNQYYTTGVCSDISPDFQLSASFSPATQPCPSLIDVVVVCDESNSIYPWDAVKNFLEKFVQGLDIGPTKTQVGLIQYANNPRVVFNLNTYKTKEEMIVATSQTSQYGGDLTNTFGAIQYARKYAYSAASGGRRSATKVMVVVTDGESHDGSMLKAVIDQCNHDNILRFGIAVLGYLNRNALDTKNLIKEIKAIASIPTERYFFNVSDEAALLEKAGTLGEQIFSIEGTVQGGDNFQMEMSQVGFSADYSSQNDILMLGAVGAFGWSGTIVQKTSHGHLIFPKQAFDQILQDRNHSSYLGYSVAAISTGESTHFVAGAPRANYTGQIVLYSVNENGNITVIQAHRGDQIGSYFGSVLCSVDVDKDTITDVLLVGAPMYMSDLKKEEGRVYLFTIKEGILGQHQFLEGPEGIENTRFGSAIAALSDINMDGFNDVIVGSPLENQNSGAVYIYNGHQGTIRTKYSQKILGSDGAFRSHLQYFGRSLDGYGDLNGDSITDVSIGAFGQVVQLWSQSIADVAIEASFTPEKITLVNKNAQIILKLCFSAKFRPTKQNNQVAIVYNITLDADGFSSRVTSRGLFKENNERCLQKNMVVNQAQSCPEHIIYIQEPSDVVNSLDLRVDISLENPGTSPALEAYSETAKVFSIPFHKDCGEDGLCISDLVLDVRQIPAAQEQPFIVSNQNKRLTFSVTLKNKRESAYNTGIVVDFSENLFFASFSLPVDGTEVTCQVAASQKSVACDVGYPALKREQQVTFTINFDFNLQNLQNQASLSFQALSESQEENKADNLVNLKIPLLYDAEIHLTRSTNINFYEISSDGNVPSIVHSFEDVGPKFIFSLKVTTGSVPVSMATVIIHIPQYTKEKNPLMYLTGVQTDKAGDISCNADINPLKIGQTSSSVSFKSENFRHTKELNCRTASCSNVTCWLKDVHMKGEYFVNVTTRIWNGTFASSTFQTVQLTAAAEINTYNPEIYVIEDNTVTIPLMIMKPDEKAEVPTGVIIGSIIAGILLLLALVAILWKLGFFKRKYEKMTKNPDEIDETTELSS
Sequence of α2b1/Collagen I (P05556 21-798): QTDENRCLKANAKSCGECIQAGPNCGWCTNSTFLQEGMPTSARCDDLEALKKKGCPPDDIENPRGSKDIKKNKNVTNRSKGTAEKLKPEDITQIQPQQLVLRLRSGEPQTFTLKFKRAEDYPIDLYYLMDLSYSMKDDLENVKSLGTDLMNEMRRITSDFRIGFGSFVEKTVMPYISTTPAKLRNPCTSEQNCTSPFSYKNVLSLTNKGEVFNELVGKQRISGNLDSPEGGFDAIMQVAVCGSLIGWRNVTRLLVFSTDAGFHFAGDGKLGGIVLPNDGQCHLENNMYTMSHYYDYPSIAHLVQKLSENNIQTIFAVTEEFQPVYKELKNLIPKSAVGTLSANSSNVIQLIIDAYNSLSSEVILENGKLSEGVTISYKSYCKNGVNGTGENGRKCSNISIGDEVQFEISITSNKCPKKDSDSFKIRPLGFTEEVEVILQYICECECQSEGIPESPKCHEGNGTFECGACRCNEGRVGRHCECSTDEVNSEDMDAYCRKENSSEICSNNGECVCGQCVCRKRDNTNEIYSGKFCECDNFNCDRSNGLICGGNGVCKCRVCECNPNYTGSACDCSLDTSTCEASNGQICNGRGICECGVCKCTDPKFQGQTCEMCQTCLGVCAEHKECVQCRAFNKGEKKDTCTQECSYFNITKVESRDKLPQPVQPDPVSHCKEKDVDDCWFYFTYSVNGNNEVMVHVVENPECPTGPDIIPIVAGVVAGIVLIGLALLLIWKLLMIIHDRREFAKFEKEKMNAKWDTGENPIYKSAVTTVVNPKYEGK
Text: (§1) Activating all integrins is necessary for firm endothelial cell adhesion for extravasation.

[3] = tested on: CT26 colon cancer syngeneic tumor; experiment: Study 2: CT26 syngeneic tumor model in Balb/c mice; format: in vivo, Mouse (Mus musculus); conditions: for % Tumor Growth Inhibition: 1 mg/kg IP QD at 4 h; for Average Tumor Volume, Mean: 1 mg/kg IP QD
Description: Mouse colon carcinoma CT26 cells were obtained from American Type Culture Collection (ATCC), USA. Cells were grown in RPMI-1640 medium (Sigma, Cat # R6504) supplemented with 10% FBS (Invitrogen, Cat #10438-026), and 1% penicillin streptomycin (Thermo Fisher Scientific, Cat #15140-122). To establish allografts, 1 million CT26 cells were suspended in 50 μL of serum-free medium and mixed at 1:1 ratio with matrigel before implanting subcutaneously into the right flank of mice.
Prior to inoculation, the skin on the injection site was swabbed with alcohol. To establish allografts, CT26 cells were suspended in serum free medium at a concentration of (1×10^6)/50 μL, mixed with equal volume of matrigel (1:1 ratio) and 100 μL of this mixture was injected to each mouse by subcutaneous implantation using a 1 mL BD syringe attached to a 24 gauge needle.
CT26 tumor xenografts were measured after approximately 1 week of cell inoculation when they become palpable. When the average tumor volume reaches around 110 mm^3, animals were randomized into treatment groups group maintaining the average tumor volume of each group similar across groups for Study 1 and Study 2. In Study 3, the animals were randomized on the basis of body weights +1 day post cell implantation.
Tumor dimensions (length and breadth) were measured on days 0 (animal randomization based on tumor volume) and thrice weekly thereafter until study termination. Tumor volumes were calculated using the formula (b^2*l)*0.52 where l=length, b=breadth (Dusan Djokovic et al., BMC Cancer, 2010, 10:641). Tumor growth inhibition was calculated after normalizing the tumor volume on a given day to that on day 1.
Mean body weight loss and percent changes were calculated for each group. Similarly, mean tumor volume and percent tumor growth inhibition were calculated. The percent tumor growth inhibition (% TGI) as a function of anti-tumor efficacy were computed with respect to untreated vehicle control by comparing to the tumor volumes of day 1 using formula described below: % TGI=[1−(Treatment TVFinal−Treatment TVInitial)/(Control TVFinal−Control TVInitial)]*100
The test agent, Compound 1 was evaluated in CT26 syngeneic tumor model in Balb/c mice. Compound 1 was administered in mice when the starting tumor volume reached 110±6.9 mm^3 seven days after implantation of CT26 cells.

aiibb3/Fibrinogen = aiibb3/Fibrinogen (Homo sapiens, UniProt P05106+P08514); experiment: Integrin activation, adhesion aiibb3/Fibrinogen; format: cell-based; parameters: key: Not Active: Not active: ≤2 fold increase in adhesion; conditions: 50% serum; n = 3
Sequence of aiibb3/Fibrinogen (P08514 32-887 limits assumed): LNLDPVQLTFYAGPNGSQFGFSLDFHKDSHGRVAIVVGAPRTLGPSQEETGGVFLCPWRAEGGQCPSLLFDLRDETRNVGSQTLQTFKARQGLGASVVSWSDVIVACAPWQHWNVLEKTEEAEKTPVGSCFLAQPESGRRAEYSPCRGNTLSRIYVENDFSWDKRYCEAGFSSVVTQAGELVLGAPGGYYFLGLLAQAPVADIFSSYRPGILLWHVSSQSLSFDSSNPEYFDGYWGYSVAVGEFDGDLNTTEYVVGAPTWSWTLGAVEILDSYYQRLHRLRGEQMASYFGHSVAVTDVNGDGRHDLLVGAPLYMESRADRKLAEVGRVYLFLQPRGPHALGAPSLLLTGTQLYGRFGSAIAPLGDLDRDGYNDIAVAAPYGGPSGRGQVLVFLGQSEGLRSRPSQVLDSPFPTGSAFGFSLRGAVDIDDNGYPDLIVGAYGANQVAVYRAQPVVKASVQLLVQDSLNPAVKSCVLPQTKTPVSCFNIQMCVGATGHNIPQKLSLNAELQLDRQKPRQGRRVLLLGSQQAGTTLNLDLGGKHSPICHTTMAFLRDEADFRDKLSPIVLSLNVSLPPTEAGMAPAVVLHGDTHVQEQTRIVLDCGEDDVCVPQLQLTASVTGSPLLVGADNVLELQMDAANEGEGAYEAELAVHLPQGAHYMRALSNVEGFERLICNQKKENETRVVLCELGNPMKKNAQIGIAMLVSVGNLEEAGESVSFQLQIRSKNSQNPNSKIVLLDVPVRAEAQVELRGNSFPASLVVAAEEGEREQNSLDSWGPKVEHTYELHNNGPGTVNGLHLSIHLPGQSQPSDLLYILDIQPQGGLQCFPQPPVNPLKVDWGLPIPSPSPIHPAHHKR
Sequence of aiibb3/Fibrinogen (P08514 891-1039 limits assumed): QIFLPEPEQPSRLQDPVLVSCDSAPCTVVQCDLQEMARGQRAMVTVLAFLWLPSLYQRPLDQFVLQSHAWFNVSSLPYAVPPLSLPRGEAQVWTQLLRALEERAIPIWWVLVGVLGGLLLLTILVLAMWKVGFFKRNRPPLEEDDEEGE
Sequence of aiibb3/Fibrinogen (P05106 27-788): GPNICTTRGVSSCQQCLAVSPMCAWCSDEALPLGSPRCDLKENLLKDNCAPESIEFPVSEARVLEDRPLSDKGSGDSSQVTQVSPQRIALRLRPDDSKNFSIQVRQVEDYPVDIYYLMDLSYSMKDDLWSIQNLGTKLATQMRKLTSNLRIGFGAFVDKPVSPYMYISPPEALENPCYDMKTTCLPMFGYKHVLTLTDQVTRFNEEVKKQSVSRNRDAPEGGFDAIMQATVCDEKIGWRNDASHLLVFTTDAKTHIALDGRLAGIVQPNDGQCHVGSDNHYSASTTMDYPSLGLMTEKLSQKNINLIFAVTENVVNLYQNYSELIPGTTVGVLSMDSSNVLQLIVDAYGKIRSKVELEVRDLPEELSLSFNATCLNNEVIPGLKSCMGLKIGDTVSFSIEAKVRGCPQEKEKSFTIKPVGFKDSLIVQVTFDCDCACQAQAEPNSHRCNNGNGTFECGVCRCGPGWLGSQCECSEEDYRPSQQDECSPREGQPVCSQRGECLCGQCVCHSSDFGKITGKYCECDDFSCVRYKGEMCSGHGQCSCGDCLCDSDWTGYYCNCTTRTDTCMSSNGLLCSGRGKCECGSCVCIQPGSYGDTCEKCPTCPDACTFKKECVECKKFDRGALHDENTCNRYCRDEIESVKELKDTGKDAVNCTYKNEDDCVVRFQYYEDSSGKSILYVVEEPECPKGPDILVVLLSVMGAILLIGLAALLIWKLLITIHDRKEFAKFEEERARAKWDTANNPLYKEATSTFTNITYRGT
Text: as §1

O=C(OCCOCCOCCOC(=O)N(Cc1cccs1)Cc1cccs1)N(Cc1cccs1)Cc1cccs1 [Compound 1, 3-oxo-1-(2-thienyl)-2-(2-thienylmethyl)-4,7,10-trioxa-2-azadodecan-12-yl bis(2-thienylmethyl)carbamate]
exposure up to which no clinical symptoms [1]: ~50 times therapeutic exposure
exposure with no adverse clinical symptoms [1]: > 50 times therapeutic exposure
CD3+ and CD4+ double positive cells in tumor ([2]; Study 3, day 19, compared to vehicle control): decreased trend
CD3+ and CD8+ double positive T-cells in tumor ([2]; Study 3, day 19, compared to vehicle control, opposite to the decreased CD3+ CD4+ trend): trend was opposite
ratio of CD8+/CD4+ T-cells in tumors ([2]; single agent, in response to treatment): progressive increase
Integrin Selectivity EC50 α2b1/Collagen I (α2b1/Collagen I): Not Active
% Tumor Growth Inhibition ([3]; Day 2): −6.6%
% Tumor Growth Inhibition ([3]; Day 4): 33.0%
% Tumor Growth Inhibition ([3]; Day 6): 38.9%
% Tumor Growth Inhibition ([3]; Day 8): 31.6%
% Tumor Growth Inhibition ([3]; Day 10): 33.5%
% Tumor Growth Inhibition ([3]; Day 13): 46.0%
Average Tumor Volume, Mean ([3]; Day 1): 111 mm^3
Average Tumor Volume, Mean ([3]; Day 2): 171 mm^3
Average Tumor Volume, Mean ([3]; Day 4): 244 mm^3
Average Tumor Volume, Mean ([3]; Day 6): 343 mm^3
Average Tumor Volume, Mean ([3]; Day 8): 545 mm^3
Average Tumor Volume, Mean ([3]; Day 10): 744* mm^3
Average Tumor Volume, Mean ([3]; Day 13): 1038^‡ mm^3
Integrin Selectivity EC50 aiibb3/Fibrinogen (aiibb3/Fibrinogen): Not Active
